From PubChem BioAssay AID280 (DTP/NCI, 2004)
Where “and” joins values, the source holds several entries; their conditions need not be identical. Equal entries are not always repeated. Toxic doses and inconclusive results are not listed.

Test system: nude mice, LOX melanoma ip, survival T/C
Experiment: NCI In Vivo Anticancer Drug Screen. Data for tumor model Human Amelanotic Melanoma (LOX) (intraperitoneal) in NU/NU BALB/C (nude) mice
Conditions: endpoint: median survival time, higher = longer survival
Procedure: The antitumor activity of compounds was measured in mice bearing transplantable tumors. Survival or tumor size were measured and the results are expressed as the measurement made in the treated group (T) divided by the measurement made in the vehicle treated control group (C). The tumor model used in this assay is Human Amelanotic Melanoma (LOX) (intraperitoneal) in NU/NU BALB/C (nude) mice

[1] = dose: 50.0 mg/kg/injection, schedule: Q04DX003 (ip), vehicle: suspension in saline
[2] = dose: 100.0 mg/kg/injection, schedule: Q04DX003 (ip), vehicle: suspension in saline
[3] = dose: 75.0 mg/kg/injection, schedule: Q04DX003 (ip), vehicle: suspension in saline
[4] = dose: 150.0 mg/kg/injection, schedule: Q04DX003 (ip), vehicle: suspension in saline
[5] = dose: 300.0 mg/kg/injection, schedule: Q04DX003 (ip), vehicle: suspension in saline
[6] = dose: 600.0 mg/kg/injection, schedule: Q04DX003 (ip), vehicle: suspension in saline

CC(=O)NO
T/C (dose: 75.0 mg/kg/injection, schedule: Q04DX003 (ip), vehicle: water): 101 % of control | T/C (dose: 150.0 mg/kg/injection, schedule: Q04DX003 (ip), vehicle: water): 101 % of control | T/C (dose: 300.0 mg/kg/injection, schedule: Q04DX003 (ip), vehicle: water): 103 % of control | T/C (dose: 600.0 mg/kg/injection, schedule: Q04DX003 (ip), vehicle: water): 103 % of control | T/C (dose: 1200.0 mg/kg/injection, schedule: Q04DX003 (ip), vehicle: water): 92 % of control

CC(=O)Nc1ccc(Nc2ccc(C(=C3C=CC(=[N+](C)CCC#N)C=C3)c3ccc(N(C)CCC#N)cc3)cc2)cc1
T/C (dose: 6.25 mg/kg/injection, schedule: Q04DX003 (ip), vehicle: suspension in saline): 101 % of control | T/C (dose: 12.5 mg/kg/injection, schedule: Q04DX003 (ip), vehicle: suspension in saline): 111 % of control | T/C (dose: 25.0 mg/kg/injection, schedule: Q04DX003 (ip), vehicle: suspension in saline): 116 % of control | T/C (dose: 30.0 mg/kg/injection, schedule: Q04DX003 (ip), vehicle: suspension in saline): 120 % of control | T/C [1]: 111 % of control and 121 % of control | T/C (dose: 83.0 mg/kg/injection, schedule: Q04DX003 (ip), vehicle: suspension in saline): 110 % of control | T/C [2]: 124 % of control

CC[C@@]1(O)C[C@H](OC2CC(N(C)C)C(OC3CC4OC5CC(=O)C(C)OC5OC4C(C)O3)C(C)O2)c2c(O)c3c(c(O)c2[C@H]1OC1CC(N(C)C)C(O)C(C)O1)C(=O)c1cccc(O)c1C3=O (some centres undefined)
T/C (dose: 63.0 micrograms/kg/injection, schedule: Q04DX003 (ip), vehicle: saline): 115 % of control | T/C (dose: 125.0 micrograms/kg/injection, schedule: Q04DX003 (ip), vehicle: saline): 111 % of control | T/C (dose: 250.0 micrograms/kg/injection, schedule: Q04DX003 (ip), vehicle: saline): 108 % of control and 94 % of control

CC/C(=C(\c1ccccc1)c1ccc(OCCN(C)C)cc1)c1ccccc1
T/C [3]: 109 % of control | T/C [4]: 101 % of control | T/C [5]: 96 % of control | T/C [6]: 95 % of control

Cn1cc(C2NC(=O)c3ccccc3N2)c2ccccc21 (centres undefined)
T/C (dose: 75.0 mg/kg/injection, schedule: Q04DX003 (ip), vehicle: Klucel (hydroxypropylcellulose) (HPC)): 110 % of control and 100 % of control | T/C (dose: 150.0 mg/kg/injection, schedule: Q04DX003 (ip), vehicle: Klucel (hydroxypropylcellulose) (HPC)): 106 % of control and 122 % of control | T/C (dose: 300.0 mg/kg/injection, schedule: Q04DX003 (ip), vehicle: Klucel (hydroxypropylcellulose) (HPC)): 110 % of control and 94 % of control

O=C(O)CCCc1ccc(N(CCCl)CCCl)cc1
T/C (dose: 0.2 mg/kg/injection, schedule: Q04DX003 (ip), vehicle: Klucel (hydroxypropylcellulose) (HPC)): 90 % of control | T/C (dose: 0.3 mg/kg/injection, schedule: Q04DX003 (ip), vehicle: Klucel (hydroxypropylcellulose) (HPC)): 95 % of control | T/C (dose: 12.0 mg/kg/injection, schedule: Q01DX001 (ip), vehicle: Klucel (hydroxypropylcellulose) (HPC)): 117 % of control | T/C (dose: 12.0 mg/kg/injection, schedule: Q01DX005 (ip), vehicle: Klucel (hydroxypropylcellulose) (HPC)): 213 % of control | T/C (dose: 12.0 mg/kg/injection, schedule: Q01DX015 (ip), vehicle: Klucel (hydroxypropylcellulose) (HPC)): 173 % of control | T/C (dose: 12.0 mg/kg/injection, schedule: Q04DX003 (ip), vehicle: Klucel (hydroxypropylcellulose) (HPC)): 116 % of control | T/C (dose: 18.0 mg/kg/injection, schedule: Q01DX001 (ip), vehicle: Klucel (hydroxypropylcellulose) (HPC)): 161 % of control | T/C (dose: 18.0 mg/kg/injection, schedule: Q01DX005 (ip), vehicle: Klucel (hydroxypropylcellulose) (HPC)): 190 % of control | T/C (dose: 18.0 mg/kg/injection, schedule: Q01DX015 (ip), vehicle: Klucel (hydroxypropylcellulose) (HPC)): 346 % of control | T/C (dose: 27.0 mg/kg/injection, schedule: Q01DX005 (ip), vehicle: Klucel (hydroxypropylcellulose) (HPC)): 346 % of control | T/C (dose: 27.0 mg/kg/injection, schedule: Q01DX015 (ip), vehicle: Klucel (hydroxypropylcellulose) (HPC)): 346 % of control | T/C (dose: 27.0 mg/kg/injection, schedule: Q04DX003 (ip), vehicle: Klucel (hydroxypropylcellulose) (HPC)): 210 % of control and 248 % of control and 97 % of control

CC[C@]1(O)C[C@H]2CN(CCc3c([nH]c4ccccc34)[C@@](C(=O)OC)(c3cc4c(cc3OC)N(C)[C@H]3[C@@](O)(C(=O)OC)[C@H](OC(C)=O)[C@]5(CC)C=CCN6CC[C@]43[C@@H]65)C2)C1
T/C (dose: 0.44 mg/kg/injection, schedule: Q04DX003 (iv), vehicle: saline): 107 % of control | T/C (dose: 0.67 mg/kg/injection, schedule: Q04DX003 (ip), vehicle: saline): 110 % of control and 203 % of control | T/C (dose: 0.67 mg/kg/injection, schedule: Q04DX003 (iv), vehicle: saline): 112 % of control | T/C (dose: 1.7 mg/kg/injection, schedule: Q04DX003 (ip), vehicle: saline): 123 % of control and 203 % of control | T/C (dose: 1.7 mg/kg/injection, schedule: Q04DX003 (iv), vehicle: saline): 188 % of control

CC1=C[P+](c2ccccc2)(c2ccccc2)C=C(c2ccccc2)O1
T/C (dose: 0.38 mg/kg/injection, schedule: Q04DX003 (ip), vehicle: saline): 97 % of control | T/C (dose: 3.0 mg/kg/injection, schedule: Q04DX003 (ip), vehicle: saline): 88 % of control

NC(=O)c1[nH]cnc1O
T/C (dose: 50.0 mg/kg/injection, schedule: Q04DX003 (ip), vehicle: saline with Tween-80): 95 % of control and 98 % of control | T/C (dose: 100.0 mg/kg/injection, schedule: Q04DX003 (ip), vehicle: saline with Tween-80): 116 % of control and 100 % of control | T/C (dose: 200.0 mg/kg/injection, schedule: Q04DX003 (ip), vehicle: saline with Tween-80): 104 % of control and 111 % of control | T/C (dose: 400.0 mg/kg/injection, schedule: Q04DX003 (ip), vehicle: saline with Tween-80): 96 % of control | T/C (dose: 800.0 mg/kg/injection, schedule: Q04DX003 (ip), vehicle: saline with Tween-80): 88 % of control

COc1cccc2c1C(=O)c1c(O)c3c(c(O)c1C2=O)C[C@](O)(C(=O)CO)CC3OC1CC(N)C(OC2CCCCO2)C(C)O1 (some centres undefined)
T/C (dose: 0.94 mg/kg/injection, schedule: Q04DX003 (ip), vehicle: water): 122 % of control | T/C (dose: 7.5 mg/kg/injection, schedule: Q04DX003 (ip), vehicle: water): 160 % of control | T/C (dose: 15.0 mg/kg/injection, schedule: Q04DX003 (ip), vehicle: water): 150 % of control

NC(Cn1ccc(=O)c(O)c1)C(=O)O (centres undefined)
T/C [3]: 105 % of control | T/C [4]: 105 % of control | T/C [5]: 109 % of control | T/C [6]: 100 % of control | T/C (dose: 1200.0 mg/kg/injection, schedule: Q04DX003 (ip), vehicle: suspension in saline): 104 % of control

CN1COc2c(n(C)c(=O)[nH]c2=O)C1
T/C (dose: 50.0 mg/kg/injection, schedule: Q04DX003 (ip), vehicle: saline): 96 % of control | T/C [1]: 102 % of control | T/C (dose: 100.0 mg/kg/injection, schedule: Q04DX003 (ip), vehicle: saline): 91 % of control | T/C [2]: 104 % of control | T/C (dose: 200.0 mg/kg/injection, schedule: Q04DX003 (ip), vehicle: saline): 104 % of control | T/C (dose: 200.0 mg/kg/injection, schedule: Q04DX003 (ip), vehicle: suspension in saline): 122 % of control | T/C (dose: 400.0 mg/kg/injection, schedule: Q04DX003 (ip), vehicle: saline): 110 % of control | T/C (dose: 400.0 mg/kg/injection, schedule: Q04DX003 (ip), vehicle: suspension in saline): 108 % of control | T/C (dose: 800.0 mg/kg/injection, schedule: Q04DX003 (ip), vehicle: saline): 120 % of control | T/C (dose: 800.0 mg/kg/injection, schedule: Q04DX003 (ip), vehicle: suspension in saline): 108 % of control
